13 compounds from US10906924B2, “Modulators of indoleamine 2,3-dioxygenase” (GLAXOSMITHKLINE INTELLECTUAL PROPERTY DEVELOPMENT LIMITED, priority 2017, dated 2021) can be followed below.

Where a name gives a salt, the structure may show the parent alone.

indoleamine 2,3-dioxygenase (IDO1), sequence (P14902 whole entry): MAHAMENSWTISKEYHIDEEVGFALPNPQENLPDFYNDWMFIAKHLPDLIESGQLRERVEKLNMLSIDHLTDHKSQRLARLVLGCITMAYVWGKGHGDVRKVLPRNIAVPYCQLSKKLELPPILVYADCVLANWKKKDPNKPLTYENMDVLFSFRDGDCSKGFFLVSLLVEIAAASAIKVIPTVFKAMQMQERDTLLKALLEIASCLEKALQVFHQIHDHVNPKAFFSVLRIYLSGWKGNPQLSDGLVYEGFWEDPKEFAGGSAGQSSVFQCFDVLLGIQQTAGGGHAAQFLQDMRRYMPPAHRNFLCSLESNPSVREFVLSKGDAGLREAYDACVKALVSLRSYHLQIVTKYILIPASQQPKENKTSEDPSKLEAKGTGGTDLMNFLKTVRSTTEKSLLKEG

This assay has as its target indoleamine 2,3-dioxygenase (IDO1) (Homo sapiens, UniProt P14902). Put plainly: PBMC IDO1 assay (kynurenine by mass spectrometry). The class given is cell-based. Conditions: human PBMC stimulated with IFN-γ and LPS, 2 days incubation, kynurenine detected by mass spectrometry; read-out: IDO1 PBMC pIC50 (converted).
As to `CCOC(=O)N1CCC2(CC1)CC(NC(=O)c1cccc3cn[nH]c13)c1cccnc1O2` (stereo not shown) [Example 42, ethyl 4′-(1H-indazole-7-carboxamido)-3′,4′-dihydrospiro[piperidine-4,2′-pyrano[2,3-b]pyridine]-1-carboxylate], the IC50 is 501 nM.
With `CCOC(=O)N1CCC2(CC1)CC(NC(=O)c1cccnc1)c1cc(Br)ccc1O2` (stereo not shown) [Example 21, ethyl 6-bromo-4-(nicotinamido)spiro[chroman-2,4′-piperidine]-1′-carboxylate], the IC50 was 79.4 nM.
Take `CCOC(=O)N1CCC2(CC1)C[C@H](NC(=O)c1ccn[nH]1)c1cc(Br)ccc1O2` [Example 44, (S)-ethyl 6-bromo-4-(1H-pyrazole-5-carboxamido)spiro[chroman-2,4′-piperidine]-1′-carboxylate]: the IC50 is 631 nM.
In the case of `CCOC(=O)N1CCC2(CC1)CC(NC(=O)c1cccc3cn[nH]c13)c1cc(Br)cnc1O2` (stereo not shown) [Example 23, ethyl 6′-bromo-4′-(1H-indazole-7-carboxamido)-3′,4′-dihydrospiro[piperidine-4,2′-pyrano[2,3-b]pyridine]-1-carboxylate], the IC50 was 79.4 nM.
For `CCOC(=O)N1CCC2(CC1)C[C@H](NC(=O)c1cccc3cn(COP(=O)(O)O)nc13)c1nc(OC)ccc1O2` [Example 56, ethyl (S)-6′-methoxy-4′-(2-((phosphonooxy)methyl)-2H-indazole-7-carboxamido)-3′,4′-dihydrospiro[piperidine-4,2′-pyrano[3,2-b]pyridine]-1-carboxylate, bis 2-amino-2-(hydroxymethyl)-1,3-propanediol salt], the IC50 is 79.4 nM.
On to `CCOC(=O)N1CCC2(CC1)CC(NC(=O)c1cccc3cc[nH]c13)c1c(Br)cccc1O2` (stereo not shown) [Example 17, ethyl 5-bromo-4-(1H-indole-7-carboxamido)spiro[chroman-2,4′-piperidine]-1′-carboxylate], for which the IC50 was 39.8 nM.
`CCOC(=O)N1CCC2(CC1)CC(NC(=O)c1cccc3ccn(C)c13)c1ccccc1O2` (stereo not shown) [Example 38, ethyl 4-(1-methyl-1H-indole-7-carboxamido)spiro[chroman-2,4′-piperidine]-1′-carboxylate]: the IC50 is 398 nM.
For `CCOC(=O)N1CCC2(CC1)C[C@H](NC(=O)c1cccc3c(COC(C)=O)[nH]nc13)c1cc(Br)ccc1O2` [Example 61, ethyl (S)-4-(3-(acetoxymethyl)-1H-indazole-7-carboxamido)-6-bromo spiro[chromane-2,4′-piperidine]-1′-carboxylate], the IC50 is 1.26 nM.
For `CCOC(=O)N1CCC2(CC1)CC(NC(=O)c1ncccc1OC)c1ccccc1O2` (stereo not shown) [Example 46, ethyl 4-(3-methoxypicolinamido)spiro[chroman-2,4′-piperidine]-1′-carboxylate], the IC50 was 794 nM.
Turning to `CCOC(=O)N1CCC2(CC1)C[C@H](NC(=O)c1ccccc1N)c1cc(Br)ccc1O2` [Example 10, (S)-ethyl 4-(2-aminobenzamido)-6-bromospiro[chroman-2,4′-piperidine]-1′-carboxylate], the IC50 is 12.6 nM.
`COC(=O)N1CCC2(CC1)C[C@H](NC(=O)c1cccc3cn(COP(=O)(O)O)nc13)c1cc(Br)ccc1O2` [Example 53, 2-amino-2-(hydroxymethyl)propane-1,3-diol hemi((S)-(7-((6-bromo-1′-(methoxycarbonyl)spiro[chroman-2,4′-piperidin]-4-yl)carbamoyl)-2H-indazol-2-yl)methyl phosphate)]: the IC50 is 631 nM.
`CCOC(=O)N1CCC2(CC1)CC(NC(=O)c1cncc(F)c1)c1ccccc1O2` (stereo not shown) [Example 30, ethyl 4-(5-fluoronicotinamido)spiro[chroman-2,4′-piperidine]-1′-carboxylate]: the IC50 is 200 nM.
Regarding `CCOC(=O)N1CCC2(CC1)C[C@H](NC(=O)c1cccc3cnn(C(C)=O)c13)c1cc(Br)ccc1O2` [Example 52, ethyl (S)-4-(1-acetyl-1H-indazole-7-carboxamido)-6-bromospiro [chromane-2,4′-piperidine]-1′-carboxylate], the IC50 is 3.98 nM.
